This is an account of results in patent publication US11439657B2, “Cancer stem cell growth inhibitor using miRNA” (CancerStem Tech Inc., priority 2017, dated 2022).

“Also recorded” adds a separate entry of the source.

In data set [1] the test system is cancer stem cell population (ZsGreen+) established from pancreatic cancer cell line Panc-1. Description: Screening of miRNAs: cell count (cell viability) of the cancer stem cell population after transfection. The following applies: miRNA 10 pmol/well, lipofectamin 2000, cells counted 48 and 72 hours later, FIG. 4. It is filed as cell-based, human. From the text:
A cancer stem cell line was established by transducing a pancreatic cancer cell line (Panc-1) with an ODC (Ornithine Decarboxylase)-Degron system capable of visualizing low metabolism that is a property of cancer stem cells using a retrovirus vector (FIG. 1a). The base sequence coding the used ODC-Degron is as set forth in SEQ ID NO: 10. Usually, cancer stem cells are so 26s proteasome hypometabolic that they cannot degrade the introduced fluorescently labeled Ornithine Decarboxylase Degron, and thus the fluorescent protein sufficiently accumulates to provide visualization.
However, even when the ODC-degron system was introduced into the pancreatic cancer cell line Panc-1, only about 0.06% cells emitting fluorescence (green) were obtained in total. With such a small number of cancer stem cells, a series of experiments including drug screening cannot be performed. Accordingly, further enrichment of cancer stem cells provided a cancer stem cell population in which cells having observed fluorescent coloring (i.e., cancer stem cells) accounted for about 81.18% in total (FIG. 1b). The obtained cancer stem cell population was designated as ZsGreen+.
A cell suspension prepared by suspending the cancer stem cell population (ZsGreen+) in a medium (DMEM medium containing 10% by volume FBS) was seeded in each well of a 24-well plate at a density of 5000 to 10000 cells/well, followed by culture at 37° C. overnight. Thereafter, according to the lipofectamin 2000 protocol, each miRNA was transfected at 10 pmol/well, and 48 hours and 72 hours later, the cells were counted. In addition, tests were also conducted under the same condition on a case where the miRNA was not introduced (untreated group, control), a case where has-miR-34a (SEQ ID NO: 8) was used (positive control) in place of the selected miRNA, and a case where a control miRNA (SEQ ID NO: 9) was used (NC1, negative control) in place of the selected miRNA. In addition, for comparison, the non-cancer stem cell population (ZsGreen−) was used in place of the cancer stem cell population (ZsGreen+) to conduct tests under the same condition.
The ratio of the number of cells under each condition to the number of control cells into which the miRNA was not introduced (cell viability, %) was determined.

Data set [2] concerns human large bowel cancer cells (DLD1 line). Description: Antitumor effect on human large bowel cancer cells, cell count after transfection. The note with it: 10 pmol/well, FIG. 11; for antitumor effect: 72 hours, positive control hsa-miR-34a; for proliferation inhibitory effect on large bowel cancer cells: cells counted 72 hours after transfection. It counts as cell-based. On the procedure: (§1) A cell suspension prepared by suspending human pancreatic cancer cells (Bxpc3 line) in D-MEM medium (containing 10% by volume FBS) was seeded in each well of a 24-well plate at 3×10^3 cells/well, followed by culture at 37° C. overnight. Thereafter, according to the lipofectamin 2000 protocol, each miRNA was transfected at 10 pmol/well, and 48 hours later, the cells were counted. In addition, tests were also conducted under the same condition on a case where the miRNA was not introduced (untreated group), a case where hsa-miR-34a (SEQ ID NO: 8) was used (positive control) in place of the miRNA, and a case where a control miRNA (SEQ ID NO: 9) was used (control miRNA, negative control) in place of the selected miRNA.
As to hsa-miR-136-5p, hsa-miR-3065-3p, hsa-miR-4727-5p, hsa-miR-378g, hsa-miR-181a-5p, hsa-miR-362-5p and hsa-miR-608, evaluation was performed of the antitumor effect on human large bowel cancer cells. The specific test method is the same as that for Test Example 4 except that human large bowel cancer cells (DLD1 line) were used as cancer cells, and that the cells were counted 72 hours after transfection.

Data set [3] has as its system human pancreatic cancer cells (Bxpc3 line). Kind of data set: Antitumor effect on human pancreatic cancer cells (1), cell count after transfection. The following applies: 10 pmol/well, FIG. 8; for antitumor effect: 48 hours, positive control hsa-miR-34a; for proliferation inhibitory effect on pancreatic cancer cells: cells counted 48 hours later. It is filed as cell-based. As for the experimental part: as §1

The subject of data set [4] is human esophageal cancer cells (TE11 line). Description: Antitumor effect on human esophageal cancer cells, cell count after transfection. It is filed as cell-based. The note with it: 10 pmol/well, FIG. 12; for antitumor effect: 72 hours, positive control hsa-miR-34a; for proliferation inhibitory effect on esophageal cancer cells: cells counted 72 hours after transfection. As for the experimental part: as §1
As to hsa-miR-136-5p, hsa-miR-3065-3p, hsa-miR-4727-5p, hsa-miR-378g and hsa-miR-181a-5p, evaluation was performed of the antitumor effect on human esophageal cancer cells. The specific test method is the same as that for Test Example 4 except that human esophageal cancer cells (TE11 line) were used as cancer cells, and that the cells were counted 72 hours after transfection.

In the case of “has-miR-34a: positive control miRNA (SEQ ID NO: 8), conventionally considered to have the highest therapeutic effect on solid tumor (UGGCAGUGUCUUAGCUGGUUGU; listed as RNA, chemistry not given here; listed as Homo sapiens) [reference compound]”, the “proliferation inhibitory effect on cancer stem cells (cell viability)” value in data set [1] is reported as “not sufficient”.
As to “hsa-miR-362-5p: human-derived miR-362-5p; base sequence set forth in SEQ ID NO: 6 as mature miRNA (AAUCCUUGGAACCUAGGUGUGAGU; listed as RNA, chemistry not given here; listed as Homo sapiens)”, in data set [1], the “proliferation inhibitory effect on cancer stem cells (cell viability)” value is “effectively suppress proliferation of cancer stem cells; also recorded: prominent proliferation inhibitory effect”. For the same substance, in data set [2], the antitumor effect result is listed as “much better antitumor effect than that of hsa-miR-34a; also recorded: particularly remarkable antitumor effect” and the “proliferation inhibitory effect on large bowel cancer cells” value is “strong proliferation inhibitory effect”.
“hsa-miR-378g: human-derived miR-378g; base sequence set forth in SEQ ID NO: 4 as mature miRNA (ACUGGGCUUGGAGUCAGAAG; listed as RNA, chemistry not given here; listed as Homo sapiens)”: in data set [1], the “proliferation inhibitory effect on cancer stem cells (cell viability)” value was “effectively suppress proliferation of cancer stem cells”. For the same substance, in data set [3], the antitumor effect entry is “much better antitumor effect than that of hsa-miR-34a” and the “proliferation inhibitory effect on pancreatic cancer cells” value is given as “strong proliferation inhibitory effect”. In addition, in data set [2], the antitumor effect entry was “much better antitumor effect than that of hsa-miR-34a” and the “proliferation inhibitory effect on large bowel cancer cells” value is “strong proliferation inhibitory effect”. For the same substance, in data set [4], the antitumor effect entry is “much better antitumor effect than that of hsa-miR-34a” and the “proliferation inhibitory effect on esophageal cancer cells” value is recorded as “strong proliferation inhibitory effect”.
For “hsa-miR-608: human-derived miR-608; base sequence set forth in SEQ ID NO: 7 as mature miRNA (AGGGGUGGUGUUGGGACAGCUCCGU; listed as RNA, chemistry not given here; listed as Homo sapiens)”, in data set [1], the “proliferation inhibitory effect on cancer stem cells (cell viability)” value is reported as “effectively suppress proliferation of cancer stem cells; also recorded: prominent proliferation inhibitory effect”. For the same substance, in data set [2], the antitumor effect entry is listed as “much better antitumor effect than that of hsa-miR-34a; also recorded: particularly remarkable antitumor effect” and the “proliferation inhibitory effect on large bowel cancer cells” value is listed as “strong proliferation inhibitory effect”.
Turning to “hsa-miR-4727-5p: human-derived miR-4727-5p; base sequence set forth in SEQ ID NO: 3 as mature miRNA (AUCUGCCAGCUUCCACAGUGG; listed as RNA, chemistry not given here; listed as Homo sapiens)”, the “proliferation inhibitory effect on cancer stem cells (cell viability)” value in data set [1] is “effectively suppress proliferation of cancer stem cells”. In data set [3], the antitumor effect result is on record as “much better antitumor effect than that of hsa-miR-34a” and the “proliferation inhibitory effect on pancreatic cancer cells” value was “strong proliferation inhibitory effect”. Also, in data set [2], the antitumor effect result was “much better antitumor effect than that of hsa-miR-34a” and the “proliferation inhibitory effect on large bowel cancer cells” value was “strong proliferation inhibitory effect”. Further, in data set [4], the antitumor effect entry is recorded as “much better antitumor effect than that of hsa-miR-34a” and the “proliferation inhibitory effect on esophageal cancer cells” value was “strong proliferation inhibitory effect”.
